IC50 and inhibition data for ten compounds are collected here from ChEMBL document CHEMBL4477248, “Blinded predictions of binding modes and energies of HSP90-α ligands for the 2015 D3R grand challenge” (Bioorg Med Chem, 2016).

Activity calls are given as the source filed them. No cut-off for these calls is given here.

For the assay, the target named is Heat shock protein HSP 90-alpha (Homo sapiens, UniProt P07900). The experiment in a line: Inhibition of HSP90alpha (unknown origin).

`COc1cc(F)c(Cl)cc1C(=O)c1ccc(OCc2ccccc2)cc1` had an IC50 of over 1 µM. The same measure, in the same setting: next, `COC(=O)c1cc(C(=O)c2ccc(OC)cc2)cc(C(=O)OC)c1OC`: over 1 µM. As to `O=C1c2ccccc2C(=O)c2c1ccc1nonc21`, the inhibition result was “Active”.

Take `O=C1c2ccccc2-c2ccccc21`: the 50% inhibitory concentration (IC50) is over 1 µM. As for `Cn1c2c([n+](C)c1CCl)C(=O)c1ccccc1C2=O`, the inhibition result was “Active”. `O=c1[nH]c2cc(CNS(=O)(=O)c3cccnc3)ccc2n1-c1cc(Cl)c(O)cc1O` gave an IC50 of 0.005 µM. `CCn1c(=O)n(-c2ccccc2OC)c2ccccc21` had an IC50 of over 1 µM. Consider `CC(=O)Oc1ccc2c(=O)c(Cc3ccccc3)c(C)oc2c1OC(C)=O`, for which the inhibition result was “Active”. On the same count and under the same terms, next, `CCOC(=O)CC1(C)Oc2ccccc2O1`: “inactive”. Same read-out and setting: next, `CC(=O)Oc1ccc([N+](=O)[O-])c2ccccc12`: “inactive”.

The IC50 is the point on the concentration scale where inhibition reaches its midpoint. A higher IC50 goes with weaker potency.
